# Test results: patent US12138256B2, “Treatment of cardiopulmonary disorders” (Bayer Aktiengesellschaft, priority 2021, dated 2024)
# “And” between values parts separate entries of the source, which are not always exact repeats. Equal values may be shown once. Read-outs that look alike come from different tables or passages of the source.
# Legend:
# [1] = Protein binding via Transil assay, human plasma; format: in vitro ADME
# Source text: The distribution of a test substance between Transil® (phosphatidylcholine lipid bilayers immobilized on silica beads) and plasma is a characteristic feature of any pharmaceutical compound and is dependent on its extent of binding to plasma proteins. By comparing the distribution between Transil® and buffer with the distribution between Transil® and plasma of any species of interest, the unbound fraction in the plasma of the respective animal species can be calculated in vitro. The respective plasma and buffer concentrations were determined via a radioactivity analysis. A detailed description of the method and its validation was published by Schuhmacher et al. (2).
# [2] = test system: thromboxane analog U46619 induced PAH in minipigs; assay: Haemodynamics (PAP, BP) in the anesthetized thromboxane challenged PAH minipig after inhaled (nebulized) application (C-2.1); format: in vivo, Göttingen minipig; settings: inhaled; for PAP % changes vs prevalue, mean: n = 3; for BP % change vs. baseline / PAP % change vs. baseline: individual animals
# Outline: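 Anesthetized, ventilated Göttingen minipigs (2-6 kg) given continuous infusion (0.3-0.75 μg/kg/min) to raise mean PAP above 25 mmHg, dosing starting after a 30 min plateau. Compound in 1% DMSO/0.2% citric acid, pH 8, nebulized via Aeroneb Pro into the inspiratory arm (~7 min; stock 300 μg/kg). PAP by Swan-Ganz catheter, BP via carotid catheter.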
# [3] = 100 μg/kg nominal dose, time 80 min
# [4] = 100 μg/kg nominal dose, time 90 min
# [5] = 100 μg/kg nominal dose, time 100 min
# [6] = 100 μg/kg nominal dose, time 110 min
# [7] = 100 μg/kg nominal dose, time 120 min
# [8] = 100 μg/kg nominal dose, time 130 min
# [9] = 100 μg/kg nominal dose, time 140 min
# [10] = 100 μg/kg nominal dose, time 150 min
# [11] = 100 μg/kg nominal dose, time 160 min
# [12] = 100 μg/kg nominal dose, time 170 min
# [13] = 100 μg/kg nominal dose, time 180 min
smiles,measurement,setting,value
"O=C(O)c1ccc(CCN(CCc2ccccc2OCc2ccc(-c3ccc(C(F)(F)F)cc3)cc2Cl)[C@H]2CCCc3nc(C(=O)O)ccc32)cc1 [comparative example 11, (5S)-5-{[2-(4-carboxyphenyl)ethyl][2-(2-{[3-chloro-4′-(trifluoromethyl)[biphenyl]-4-yl]methoxy}phenyl)ethyl]amino}-5,6,7,8-tetrahydroquinoline-2-carboxylic acid]",fraction unbound,"[1]; Human (male) plasma, Transil assay, read-out: Fraction unbound",0.000764
same,fraction unbound,"[1]; plasma (Transil beads), human plasma, read-out: plasma fu (fraction unbound)",0.000764
same,"PAP % changes vs prevalue, mean","[2]; 10 μg/kg nominal dose, time 0 min",0%
same,"PAP % changes vs prevalue, mean","[2]; 10 μg/kg nominal dose, time 10 min",0.6%
same,"PAP % changes vs prevalue, mean","[2]; 10 μg/kg nominal dose, time 20 min",0.2%
same,"PAP % changes vs prevalue, mean","[2]; 10 μg/kg nominal dose, time 30 min",−0.7%
same,"PAP % changes vs prevalue, mean","[2]; 10 μg/kg nominal dose, time 40 min",−1.5%
same,"PAP % changes vs prevalue, mean","[2]; 10 μg/kg nominal dose, time 50 min",−2.3%
same,"PAP % changes vs prevalue, mean","[2]; 10 μg/kg nominal dose, time 60 min",−3.5%
same,"PAP % changes vs prevalue, mean","[2]; 10 μg/kg nominal dose, time 70 min",−4.2%
same,"PAP % changes vs prevalue, mean","[2]; 10 μg/kg nominal dose, time 80 min",−3.7%
same,"PAP % changes vs prevalue, mean","[2]; 10 μg/kg nominal dose, time 90 min",−4.3%
same,"PAP % changes vs prevalue, mean","[2]; 10 μg/kg nominal dose, time 100 min",−5.3%
same,"PAP % changes vs prevalue, mean","[2]; 10 μg/kg nominal dose, time 110 min",−6.2%
same,"PAP % changes vs prevalue, mean","[2]; 10 μg/kg nominal dose, time 120 min",−6.7%
same,"PAP % changes vs prevalue, mean","[2]; 10 μg/kg nominal dose, time 130 min",−6.2%
same,"PAP % changes vs prevalue, mean","[2]; 10 μg/kg nominal dose, time 140 min",−7%
same,"PAP % changes vs prevalue, mean","[2]; 10 μg/kg nominal dose, time 150 min",−7.6%
same,"PAP % changes vs prevalue, mean","[2]; 10 μg/kg nominal dose, time 160 min",−7.6%
same,"PAP % changes vs prevalue, mean","[2]; 10 μg/kg nominal dose, time 170 min",−8.2%
same,"PAP % changes vs prevalue, mean","[2]; 10 μg/kg nominal dose, time 180 min",−8.0%
same,"PAP % changes vs prevalue, mean","[2]; 10 μg/kg nominal dose, time 190 min",−7.8%
same,"PAP % changes vs prevalue, mean","[2]; 10 μg/kg nominal dose, time 200 min",−7.3%
same,"PAP % changes vs prevalue, mean","[2]; 10 μg/kg nominal dose, time 210 min",−7.5%
same,"PAP % changes vs prevalue, mean","[2]; 10 μg/kg nominal dose, time 220 min",−7.2%
same,"PAP % changes vs prevalue, mean","[2]; 10 μg/kg nominal dose, time 230 min",−7.2%
same,"PAP % changes vs prevalue, mean","[2]; 10 μg/kg nominal dose, time 240 min",−7.6%
same,"PAP % changes vs prevalue, mean","[2]; 30 μg/kg nominal dose, time 0 min",0%
same,"PAP % changes vs prevalue, mean","[2]; 30 μg/kg nominal dose, time 10 min",0.3%
same,"PAP % changes vs prevalue, mean","[2]; 30 μg/kg nominal dose, time 20 min",−2.0%
same,"PAP % changes vs prevalue, mean","[2]; 30 μg/kg nominal dose, time 30 min",−4.6%
same,"PAP % changes vs prevalue, mean","[2]; 30 μg/kg nominal dose, time 40 min",−7.8%
same,"PAP % changes vs prevalue, mean","[2]; 30 μg/kg nominal dose, time 50 min",−9.8%
same,"PAP % changes vs prevalue, mean","[2]; 30 μg/kg nominal dose, time 60 min",−11.8%
same,"PAP % changes vs prevalue, mean","[2]; 30 μg/kg nominal dose, time 70 min",−14.1%
same,"PAP % changes vs prevalue, mean","[2]; 30 μg/kg nominal dose, time 80 min",−14.2%
same,"PAP % changes vs prevalue, mean","[2]; 30 μg/kg nominal dose, time 90 min",−14.4%
same,"PAP % changes vs prevalue, mean","[2]; 30 μg/kg nominal dose, time 100 min",−14.8%
same,"PAP % changes vs prevalue, mean","[2]; 30 μg/kg nominal dose, time 110 min",−15.3%
same,"PAP % changes vs prevalue, mean","[2]; 30 μg/kg nominal dose, time 120 min",−15.3%
same,"PAP % changes vs prevalue, mean","[2]; 30 μg/kg nominal dose, time 130 min",−15.5%
same,"PAP % changes vs prevalue, mean","[2]; 30 μg/kg nominal dose, time 140 min",−15.3%
same,"PAP % changes vs prevalue, mean","[2]; 30 μg/kg nominal dose, time 150 min",−16.3%
same,"PAP % changes vs prevalue, mean","[2]; 30 μg/kg nominal dose, time 160 min",−16.3%
same,"PAP % changes vs prevalue, mean","[2]; 30 μg/kg nominal dose, time 170 min",−14.9%
same,"PAP % changes vs prevalue, mean","[2]; 30 μg/kg nominal dose, time 180 min",−14.7%
same,"PAP % changes vs prevalue, mean","[2]; 30 μg/kg nominal dose, time 190 min",−15.1%
same,"PAP % changes vs prevalue, mean","[2]; 30 μg/kg nominal dose, time 200 min",−15.3%
same,"PAP % changes vs prevalue, mean","[2]; 30 μg/kg nominal dose, time 210 min",−13.8%
same,"PAP % changes vs prevalue, mean","[2]; 30 μg/kg nominal dose, time 220 min",−13.6%
same,"PAP % changes vs prevalue, mean","[2]; 30 μg/kg nominal dose, time 230 min",−12.8%
same,"PAP % changes vs prevalue, mean","[2]; 30 μg/kg nominal dose, time 240 min",−13.4%
same,"PAP % changes vs prevalue, mean","[2]; 100 μg/kg nominal dose, time 0 min",0%
same,"PAP % changes vs prevalue, mean","[2]; 100 μg/kg nominal dose, time 10 min",−2.1%
same,"PAP % changes vs prevalue, mean","[2]; 100 μg/kg nominal dose, time 20 min",−7.2%
same,"PAP % changes vs prevalue, mean","[2]; 100 μg/kg nominal dose, time 30 min",−14.6%
same,"PAP % changes vs prevalue, mean","[2]; 100 μg/kg nominal dose, time 40 min",−18.1%
same,"PAP % changes vs prevalue, mean","[2]; 100 μg/kg nominal dose, time 50 min",−22.2%
same,"PAP % changes vs prevalue, mean","[2]; 100 μg/kg nominal dose, time 60 min",−25.1%
same,"PAP % changes vs prevalue, mean","[2]; 100 μg/kg nominal dose, time 70 min",−27.0%
same,BP % change vs. baseline,[2]; [3],103.2% and 100.0% and 100.1%
same,PAP % change vs. baseline,[2]; [3],103.3% and 100.0% and 98.5%
same,"PAP % changes vs prevalue, mean",[2]; [3],−27.9%
same,BP % change vs. baseline,[2]; [4],98.8% and 98.2% and 100.1%
same,PAP % change vs. baseline,[2]; [4],98.8% and 102.2% and 99.6%
same,"PAP % changes vs prevalue, mean",[2]; [4],−28.9%
same,BP % change vs. baseline,[2]; [5],101.0% and 100.0% and 100.1%
same,PAP % change vs. baseline,[2]; [5],99.4% and 97.3% and 97.5%
same,"PAP % changes vs prevalue, mean",[2]; [5],−31.1%
same,BP % change vs. baseline,[2]; [6],98.8% and 99.1% and 98.2%
same,PAP % change vs. baseline,[2]; [6],94.0% and 90.4% and 94.4%
same,"PAP % changes vs prevalue, mean",[2]; [6],−30.8%
same,BP % change vs. baseline,[2]; [7],98.8% and 98.2% (2×)
same,PAP % change vs. baseline,[2]; [7],87.4% and 80.2% and 88.8%
same,"PAP % changes vs prevalue, mean",[2]; [7],−31.3%
same,BP % change vs. baseline,[2]; [8],98.8% and 98.2% and 99.2%
same,PAP % change vs. baseline,[2]; [8],84.3% and 75.6% and 86.1%
same,"PAP % changes vs prevalue, mean",[2]; [8],−31.2%
same,BP % change vs. baseline,[2]; [9],98.8% and 96.5% and 102.0%
same,PAP % change vs. baseline,[2]; [9],82.2% and 69.4% and 82.1%
same,"PAP % changes vs prevalue, mean",[2]; [9],−31.6%
same,BP % change vs. baseline,[2]; [10],97.7% and 95.6% and 103.0%
same,PAP % change vs. baseline,[2]; [10],80.0% and 67.4% and 77.3%
same,"PAP % changes vs prevalue, mean",[2]; [10],−31.1%
same,BP % change vs. baseline,[2]; [11],98.8% and 93.9% and 101.1%
same,PAP % change vs. baseline,[2]; [11],78.2% and 66.2% and 74.6%
same,"PAP % changes vs prevalue, mean",[2]; [11],−30.1%
same,BP % change vs. baseline,[2]; [12],98.8% and 95.6% and 99.2%
same,PAP % change vs. baseline,[2]; [12],78.1% and 65.9% and 72.4%
same,"PAP % changes vs prevalue, mean",[2]; [12],−31.1%
same,BP % change vs. baseline,[2]; [13],97.7% and 92.1% and 99.2%
same,PAP % change vs. baseline,[2]; [13],78.5% and 62.7% and 72.2%
same,"PAP % changes vs prevalue, mean",[2]; [13],−31.1%
